From patent US10555987B2, “GHRH agonists for the treatment of ischemic disorders” (UNIVERSITY OF MIAMI, priority 2012, dated 2020)
Non-standard residues stand in square brackets, D forms with d. Residues, ends and D or L forms follow the SMILES beside them. NMeY = CN[C@@H](Cc1ccc(O)cc1)C(=O)O; Nle = CCCC[C@H](N)C(=O)O; Orn = NCCC[C@H](N)C(=O)O; Abu = CC[C@H](N)C(=O)O

What was measured:
GHRH receptor [1] = target: T1, GHRH receptor (Homo sapiens, UniProt Q02643); test: GHRH receptor binding, competition with 125I-labeled JV-1-42, human pituitary membrane homogenates (Table 7); design: Normal human pituitaries were purchased from the National Hormone and Peptide Program; tissue National Hormone and Peptide Program (A.F. Parlow, Harbor-UCLA Medical Center, Torrance, Calif.); host or cells: normal human pituitary, membrane fraction; settings: JI-38 = 1, Table 7
T1 sequence (Q02643 23-423): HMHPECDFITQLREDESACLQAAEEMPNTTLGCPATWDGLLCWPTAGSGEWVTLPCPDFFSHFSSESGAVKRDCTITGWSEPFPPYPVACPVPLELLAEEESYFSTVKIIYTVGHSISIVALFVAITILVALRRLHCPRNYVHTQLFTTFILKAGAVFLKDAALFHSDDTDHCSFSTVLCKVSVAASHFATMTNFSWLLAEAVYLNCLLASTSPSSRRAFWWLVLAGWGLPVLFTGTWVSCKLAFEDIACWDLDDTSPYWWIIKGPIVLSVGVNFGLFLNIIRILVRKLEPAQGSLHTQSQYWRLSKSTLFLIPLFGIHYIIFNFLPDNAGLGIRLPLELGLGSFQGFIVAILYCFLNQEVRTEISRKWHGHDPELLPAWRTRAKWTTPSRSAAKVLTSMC
Source text: Normal human pituitaries were purchased from the National Hormone and Peptide Program (A.F. Parlow, Los Angeles, County Harbor-UCLA Medical Center, Torrance, Calif.).

GHRH receptor [2] = target: T1, GHRH receptor; test: Receptor binding in vitro, 125I-labeled [His1,Nle27]-hGHRH(1-32)NH2, membrane receptors of human anterior pituitary cells (Table 14); settings: for Relative affinity (Binding potency) compared to JI-38: JI-38 = 1; for Relative affinity (Binding potency) compared to hGHRH(1-29): hGHRH(1-29)NH2 = 1
Source text: Normal human pituitary was purchased from the National Hormone and Peptide Program (UCLA Medical Center, Torrance, Calif.).

GH release = test: GH releasing potency in vivo, subcutaneous administration (Example 14, Table 12); design: species or system rat; settings: s.c.; for Serum GH level at selected time after injection (ng/ml), 0 min / Serum GH level at selected time after injection (ng/ml), 15 min / Serum GH level at selected time after injection (ng/ml), 30 min: male rats, dose 3 μg/kg, mean ± SEM
Method: Male Sprague-Dawley rats, weighing 200-250 g, were purchased from Charles River Laboratory (Wilmington, Mass.) and used for experiments. All animal procedures were approved by the Veterans Affairs Animal Care and Use Committee and were conducted in accordance with additional institutional guidelines as well. Briefly, groups of 5-6 animals were used in each experiment. The rats were anesthetized with 50 mg/kg of sodium pentobarbital (Nembutal, Lundbeck Inc., Deerfield, Ill.). Twenty min after inducing anesthesia, GHRH(1-29)NH2, JI-38, or new analogs were injected into the animals intravenously (i.v.) or subcutaneously (s.c.). The peptides were dissolved in 0.01 M acetic acid to get 1 μg/μl stock solution, and then diluted with 5% mannitol. Control rats received 5% mannitol only. Blood samples were collected from the jugular vein at selected times and were used for serum preparation. Concentrations of GH in rat sera were determined by ELISA. The relative potencies of tested peptides were calculated using GHRH(1-29)NH2 and JI-38 for comparison, whose potency was defined as 1. The equivalent dosage of GHRH(1-29)NH2 to reach the same level of serum growth hormone release after injection of the specific tested peptide was determined from a GHRH(1-29)NH2 standard curve using Origin 6.0 software. […] Serum GH was determined using the rat Growth Hormone ELISA kit (ALPCO Diagnostics, Mill Valley, Calif.) according to the manufacturer's instruction. Absorbance at 405 nm was measured by a Victor 3 Multi-label Counter (Perkin-Elmer, Waltham, Md.).

Compound	Relative affinity (Binding potency) vs JI-38 (GHRH receptor [1])	Relative affinity (Binding potency) compared to JI-38 (GHRH receptor [2])	Relative affinity (Binding potency) compared to hGHRH(1-29) (GHRH receptor [2])	Serum GH level at selected time after injection (ng/ml), 0 min (GH release)	Serum GH level at selected time after injection (ng/ml), 15 min (GH release)	Serum GH level at selected time after injection (ng/ml), 30 min (GH release)	Relative potency compared to GHRH(1-29), 15 min (GH release)	Relative potency compared to JI-38, 15 min (GH release)	Relative potency compared to GHRH(1-29), 30 min (GH release)	Relative potency compared to JI-38, 30 min (GH release)
CCCC[C@H](NC(=O)[C@@H](NC(=O)[C@H](CC(=O)O)NC(=O)[C@H](CCC(N)=O)NC(=O)[C@H](CC(C)C)NC(=O)[C@H](CC(C)C)NC(=O)[C@H](CCCN)NC(=O)[C@H](CCCNC(=N)N)NC(=O)[C@H](C)NC(=O)[C@H](CO)NC(=O)[C@H](CC(C)C)NC(=O)[C@H](CCC(N)=O)NC(=O)[C@H](CC)NC(=O)[C@H](CC(C)C)NC(=O)[C@@H](NC(=O)[C@H](CCCN)NC(=O)[C@H](CCCNC(=N)N)NC(=O)[C@H](Cc1ccc(O)cc1)NC(=O)[C@H](CO)NC(=O)[C@H](CCC(N)=O)NC(=O)[C@@H](NC(=O)[C@H](Cc1ccccc1)NC(=O)[C@@H](NC(=O)[C@H](C)NC(=O)[C@H](CC(=O)O)NC(=O)[C@@H](C)NC(=O)[C@H](Cc1ccc(O)cc1)NC)[C@@H](C)CC)[C@@H](C)O)C(C)C)[C@@H](C)CC)C(=O)N[C@@H](CC(=O)O)C(=O)N[C@@H](CCCNC(=N)N)C(=O)NCC [Peptide P-28420, [N—Me-Tyr^1, D-Ala^2, Gln^8, Orn^12, Abu^15, Orn^21, Nle^27, Asp^28]hGHRH(1-29)NH—CH2—CH3] (H-[NMeY][dA]DAIFTQSYR[Orn]VL[Abu]QLSAR[Orn]LLQDI[Nle]DR-NHEt)	8.37	1.01	2.83	35.5 ± 7.6 ng/mL	256.2 ± 46.0 ng/mL	126.1 ± 15.8 ng/mL	72.6	1.15	107.8	0.96
CCCC[C@H](NC(=O)[C@@H](NC(=O)[C@H](CC(=O)O)NC(=O)[C@H](CCC(N)=O)NC(=O)[C@H](CC(C)C)NC(=O)[C@H](CC(C)C)NC(=O)[C@H](CCCN)NC(=O)[C@H](CCCNC(=N)N)NC(=O)[C@H](C)NC(=O)[C@H](CO)NC(=O)[C@H](CC(C)C)NC(=O)[C@H](CCC(N)=O)NC(=O)[C@H](CC)NC(=O)[C@H](CC(C)C)NC(=O)[C@@H](NC(=O)[C@H](CCCN)NC(=O)[C@H](CCCNC(=N)N)NC(=O)[C@H](Cc1ccc(O)cc1)NC(=O)[C@H](CO)NC(=O)[C@H](CC(N)=O)NC(=O)[C@@H](NC(=O)[C@H](Cc1ccccc1)NC(=O)[C@@H](NC(=O)[C@H](C)NC(=O)[C@H](CC(=O)O)NC(=O)[C@@H](C)NC(=O)[C@H](Cc1ccc(O)cc1)NC)[C@@H](C)CC)[C@@H](C)O)C(C)C)[C@@H](C)CC)C(=O)N[C@@H](CC(=O)O)C(=O)N[C@@H](CCCNC(=N)N)C(=O)NCC [Peptide P-28421, [N—Me-Tyr^1, D-Ala^2, Orn^12, Abu^15, Orn^21, Nle^27, Asp^28]hGHRH(1-29) NH—CH2—CH3] (H-[NMeY][dA]DAIFTNSYR[Orn]VL[Abu]QLSAR[Orn]LLQDI[Nle]DR-NHEt)	2.96	0.90	2.50	44.0 ± 8.9 ng/mL	252.4 ± 33.3 ng/mL	137.3 ± 17.5 ng/mL	71.2	1.13	125.4	1.12
